In paper PMC5007854, “β-Nitrostyrenes as Potential Anti-leishmanial Agents” (Frontiers in Microbiology, 2016):
Values after ≈ are worked out from the molar mass of the structure shown.

Experiments:
[1] = tested on: Candida albicans ATCC 90028; assay: Broth microdilution antifungal susceptibility (MIC/MFC); assay type: cell-based; conditions: Candida albicans; for MFC: ATCC90028, ≥99.9% reduction of original inoculum, read-out: MFC, Ca ATCC 90028
Description: (§1) One reference each of the following species was used for their in vitro susceptibility to β-nitrostyrene in this study: Staphylococcus aureus ATCC 29213, Staphylococcus epidermidis ATCC 14990, Escherichia coli ATCC 25922, Pseudomonas aeruginosa ATCC 27853, Candida albicans ATCC 90028, Candida glabrata ATCC 90030, Aspergillus fumigatus ATCC 16424 and Aspergillus niger ATCC 16404. These strains were procured from the American Type Culture Collection (ATCC, Manassas, VA, USA).
(§2) The antibacterial and antifungal activities of the β-nitrostyrenes were performed by broth microdilution methods as per the guidelines of Clinical and Laboratory Standard Institute (Wayne, [1998], [2008a],[b],[c]) by using Mueller-Hinton broth (MHB; Becton-Dickinson, Cockeysville, MD, USA) supplemented with calcium (25 mg/L) and magnesium (12.5 mg/L) for bacterial strains while as RPMI 1640 medium with L-glutamine and without sodium bicarbonate, buffered to pH 7.0 with 0.165 M 3-(N-morpholino) propanesulfonic acid (MOPS; both from Sigma) was used for fungal strains. Stock solutions were prepared in 100% dimethyl sulfoxide (DMSO; Sigma; distilled water was used for ciprofloxacin), with a final DMSO concentration of 1% (vol. per vol.) and two-fold serial dilutions were prepared in media in amounts of 100 μL per well in 96-well U-bottom microtiter plates (Tarsons, Kolkata, India) to yield twice the final concentration required for testing, which ranged from 64 to 0.12 μg/mL for β-nitrostyrenes and 16 to 0.03 μg/mL for ciprofloxacin as well as amphotericin B. Stock inoculum suspensions of the bacteria, Candida species and Aspergillus species were prepared in sterile normal saline (0.85%) containing 0.05% polysorbate 20 (NST) from overnight (3 to 5-day old for Aspergillus species) strains grown on Trypticase soy agar (TSA; Becton-Dickinson) and potato dextrose agar (Difco Laboratories, Detroit, MI, USA) respectively at 35°C. Inocula were verified for each assay by plating onto agar plates for colony enumeration. These suspensions were further diluted in the respective test medium and a 100 μl volume of this diluted inoculum was added to each well of the plate, resulting in a final inoculum concentration of approximately 5 × 10^5 CFU/mL for bacter1ia, (Wayne, [2008a]) approximately 2.5 × 10^4 CFU/ml for Candida species (Pfaller et al., [2004]) while as 0.4 × 10^4 to 5 × 10^4 CFU/mL for Aspergillus species (Wayne, [2008c]). Untreated growth control, vehicle control (DMSO) and sterility control wells were included for each isolate tested. Ciprofloxacin and amphotericin B served as the standard drug controls for bacterial and fungal strains, respectively. The microtiter plates were incubated at 35°C for 24 h for bacterial strains and 48 h for fungal strains. The plates were read visually and the minimum inhibitory concentration (MIC) was defined as the lowest concentration of test sample that prevented visible growth with respect to the growth control.
(§3) The minimum bactericidal concentration (MBC) and minimum fungicidal concentration (MFC) were determined by plating 100 μl volumes on agar plates from the wells showing no visible growth (clear MIC well). The plates were incubated as described above in MIC measurements. […] All experiments were conducted twice in duplicates on separate occasions with freshly prepared inoculums and stock solutions.

[2] = tested on: Candida glabrata ATCC 90030; assay: as above; assay type: cell-based; conditions: Nakaseomyces glabratus; for MFC: ATCC90030, ≥99.9% reduction of original inoculum, read-out: MFC, Cg ATCC 90030
Description: as §1, §2, §3

[3] = tested on: Aspergillus fumigatus ATCC 16424; assay: as above; assay type: cell-based; conditions: for MIC / MFC: Aspergillus fumigatus; for MIC: ATCC16424, 48 h, read-out: MIC, Af ATCC 16424; for MFC: ATCC16424, ≥99.9% reduction of original inoculum, read-out: MFC, Af ATCC 16424
Description: as §1, §2, §3

[4] = tested on: Aspergillus niger ATCC 16404; assay: as above; assay type: cell-based; conditions: for MIC / MFC: Aspergillus niger; for MIC: ATCC16404, 48 h, read-out: MIC, An ATCC 16404; for MFC: ATCC16404, ≥99.9% reduction of original inoculum, read-out: MFC, An ATCC 16404
Description: as §1, §2, §3

[5] = tested on: L. donovani promastigotes; assay: Anti-leishmanial screening at 100 μM, parasite viability by microscopy; assay type: cell-based, Leishmania donovani
Protocol: (§4) L. donovani parasites (MHOM/IN/83/AG83) were maintained in vivo in BALB/c mice. Promastigotes were routinely cultured at 22°C in medium M199 supplemented with 10% heat inactivated fetal bovine serum (FBS, HiMedia Laboratories, Mumbai, India), penicillin 100 (IU/ml), streptomycin (100 μg/ml). Log phase promastigotes were sub-cultured every 72–96 h, the inoculum being 2 × 10^6 cells/ml (Afrin et al., [2002]).
Nitrostyrine series were screened for their antileishmanial activity against L. donovani promastigotes in vitro. Promastigotes of L. donovani (2 × 10^6 cells/mL) in M199 medium were incubated at 22°C for 72 h with each compound at a concentration of 100 μM. Amphotericin B (AmB) served as reference drug, 0.2% DMSO was used as solvent control. Parasites with media alone were taken as control. Parasite viability was determined microscopically after 72 h (Islamuddin et al., [2014b]).

[6] = tested on: Escherichia coli ATCC 25922; assay: Broth microdilution antibacterial susceptibility (MIC/MBC); assay type: cell-based; conditions: for MIC / MBC: Escherichia coli; for MIC: ATCC25922, 24 h, read-out: MIC, Ec ATCC 25922; for MBC: ATCC25922, ≥99.9% reduction of original inoculum, read-out: MBC, Ec ATCC 25922
Description: as §1, §2, §3

[7] = tested on: Staphylococcus epidermidis ATCC 14990; assay: as above; assay type: cell-based; conditions: for MIC / MBC: Staphylococcus epidermidis; for MIC: ATCC14990, 24 h, read-out: MIC, Se ATCC 14990; for MBC: ATCC14990, ≥99.9% reduction of original inoculum, read-out: MBC, Se ATCC 14990
Description: as §1, §2, §3

[8] = tested on: Staphylococcus aureus ATCC 29213; assay: as above; assay type: cell-based; conditions: for MIC / MBC: Staphylococcus aureus; for MIC: ATCC29213, 24 h, read-out: MIC, Sa ATCC 29213; for MBC: ATCC29213, ≥99.9% reduction of original inoculum, read-out: MBC, Sa ATCC 29213
Description: as §1, §2, §3

[9] = tested on: Pseudomonas aeruginosa ATCC 27853; assay: as above; assay type: cell-based; conditions: for MIC / MBC: Pseudomonas aeruginosa; for MIC: ATCC27853, 24 h, read-out: MIC, Pa ATCC 27853; for MBC: ATCC27853, ≥99.9% reduction of original inoculum, read-out: MBC, Pa ATCC 27853
Description: as §1, §2, §3

[10] = tested on: L. donovani promastigotes; assay: Dose-dependent anti-promastigote activity, IC50 and IC90; assay type: cell-based, Leishmania donovani
Protocol: as §4
AmB was used as a standard antileishmanial drug control. The cell viability was evaluated by microscopically and the mean percentage viability was calculated as follows: Mean cell number of treated parasites / Mean cell number of untreated parasites × 100. The 50 and 90% inhibitory concentration (IC50 and IC90) i.e., the concentration of drugs that decreased the cell growth by 50 and 90% respectively was determined by graphical extrapolation after plotting the graph of % viability vs. concentration of drug (Islamuddin et al., [2014b]).
In vitro antileishmanial activity was expressed as IC50 by linear regression analysis. Values are mean ± SE of samples in triplicate from at least three independent experiments. Statistical analysis was performed using ANOVA followed by Dunnett's test. ^*P < 0.05, ^**P < 0.01 and ^***P < 0.001 compared with the untreated control group were considered significant.

[11] = broth microdilution, 35°C, 48 h
[12] = broth microdilution, 35°C, 24 h

Structure (SMILES) | MFC [1] | MFC [2] | MIC [3, 11] | MFC [3] | MIC [4, 11] | MFC [4] | MIC [6, 12] | MBC [6] | MIC [7, 12] | MBC [7] | MIC [8, 12] | MBC [8] | MIC [9, 12] | MBC [9] | melting point | other results
CCOc1cccc(/C=C/[N+](=O)[O-])c1O [Compound 27, 2-ethoxy-6-((E)-2-nitrovinyl) phenol] | 32 µg/mL (≈ 153 µM) | 16 µg/mL (≈ 76.5 µM) | 16 µg/mL (≈ 76.5 µM) | 16 µg/mL (≈ 76.5 µM) | 8 µg/mL (≈ 38.2 µM) | 8 µg/mL (≈ 38.2 µM) | > 64 µg/mL | > 64 µg/mL | 16 µg/mL (≈ 76.5 µM) | 16 µg/mL (≈ 76.5 µM) | 32 µg/mL (≈ 153 µM) | 32 µg/mL (≈ 153 µM) | > 64 µg/mL | > 64 µg/mL | 128 to 130 °C | MIC ([1]; ATCC90028, 48 h, broth microdilution, 35°C, 48 h, read-out: MIC, Ca ATCC 90028): 32 µg/mL (≈ 153 µM); MIC ([2]; ATCC90030, 48 h, broth microdilution, 35°C, 48 h, read-out: MIC, Cg ATCC 90030): 16 µg/mL (≈ 76.5 µM); Anti-leishmanial activity, in words (SAR discussion) ([5]; L. donovani promastigotes): inactive
C/C(=C\c1cccc(O)c1)[N+](=O)[O-] [Compound 20, 3-((E)-2-nitroprop-1-enyl) phenol] | 16 µg/mL (≈ 89.3 µM) | 8 µg/mL (≈ 44.6 µM) | 4 to 8 µg/mL (≈ 22.3 to 44.6 µM) | 8 µg/mL (≈ 44.6 µM) | 2 to 4 µg/mL (≈ 11.2 to 22.3 µM) | 4 µg/mL (≈ 22.3 µM) | 16 to 32 µg/mL (≈ 89.3 to 179 µM) | 16 µg/mL (≈ 89.3 µM) | 2 to 16 µg/mL (≈ 11.2 to 89.3 µM) | 2 µg/mL (≈ 11.2 µM) | 2 to 32 µg/mL (≈ 11.2 to 179 µM) | 4 µg/mL (≈ 22.3 µM) | 16 to 32 µg/mL (≈ 89.3 to 179 µM) | 32 µg/mL (≈ 179 µM) | 96 to 98 °C | MIC, Af ATCC 16424 [3, 11]: 8 µg/mL (≈ 44.6 µM); MIC, An ATCC 16404 [4, 11]: 4 µg/mL (≈ 22.3 µM); Parasite viability after treatment ([5]; 100 μM, 72 h, phase contrast microscope): All the parasites were found to be dead; Anti-leishmanial activity, in words (compounds with IC50 determined) ([10]; L. donovani promastigotes): moderately active; IC50 ([10]; Leishmania donovani, 72 h, 22°C, values given in μM, read-out: IC50 against promastigotes): 63.2 ± 2.06 µM; MIC, Ec ATCC 25922 [6, 12]: 16 µg/mL (≈ 89.3 µM); MIC, Se ATCC 14990 [7, 12]: 2 µg/mL (≈ 11.2 µM); MIC, Sa ATCC 29213 [8, 12]: 2 µg/mL (≈ 11.2 µM); MIC, Pa ATCC 27853 [9, 12]: 16 µg/mL (≈ 89.3 µM)
